Results from patent US20190053492A1, “SUBSTITUTED PYRIDINE COMPOUNDS AS PESTICIDES” (Bayer CropScience Aktiengesellschaft, priority 2016, published 2019).
Values belong to the compound of their own block, whether it stands above or below them.

What was measured:
Spodoptera frugiperda = Spodoptera frugiperda spray test; type: in vivo; conditions: after 7 days, maize leaf discs
Method in brief: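 Efficacy in % was scored at 7 days against armyworm caterpillars placed on dried, compound-sprayed Zea mays leaf discs. Compound was dissolved in acetone/dimethylformamide and diluted in water with 1000 ppm alkylaryl polyglycol ether. 100% means all caterpillars were killed.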

[1] = log P by HPLC on reversed-phase column (C 18), EEC Directive 79/831 Annex V.A8; type: physicochemical; conditions: 55° C.; for LOGP_HCOOH: log P (HCOOH)
Description: Temperature: 55° C. […] Called log P (HCOOH) in the table. […] Called log P (neutral) in the table.

Ctenocephalides felis = Ctenocephalides felis oral test; type: in vivo; conditions: application rate 100 ppm in citrated cattle blood, after 2 days, adult cat fleas
Method in brief: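 Kill (%) was recorded at 2 days. Compound, dissolved in DMSO and diluted into citrated cattle blood, was offered to roughly 20 unfed adult C. felis through parafilm.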

Phaedon cochleariae = Phaedon cochleariae spray test; type: in vivo; conditions: after 7 days, Chinese cabbage leaf discs
Method in brief: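 Larval kill read at day 7 as percent, where 100% means every larva dead and 0% none; larvae were placed on dried Brassica pekinensis leaf discs previously sprayed with the formulation (acetone/dimethylformamide solvent, alkylaryl polyglycol ether emulsifier, water).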

Lucilia cuprina = Lucilia cuprina test; type: in vivo; conditions: application rate 100 ppm, after 2 days, L1 larvae
Description: Lucilia cuprina Test Solvent: dimethyl sulphoxide To produce a suitable active ingredient formulation, 10 mg of active ingredient are mixed with 0.5 ml of dimethyl sulphoxide, and the concentrate is diluted with water to the desired concentration. About 20 L1 larvae of the Australian sheep blowfly (Lucilia cuprina) are transferred into a test vessel containing minced horsemeat and the active ingredient formulation of the desired concentration. After 2 days, the kill in % is determined. 100% means that all the larvae have been killed; 0% means that no larvae have been killed.

[2] = acidic range pH 2.7, 0.1% aqueous formic acid and acetonitrile, reversed-phase column (C 18)
[3] = log P, neutral range, HPLC on reversed-phase column (C 18)
[4] = acidic range at pH 2.7, 0.1% aqueous formic acid and acetonitrile, HPLC on reversed-phase column (C 18)

Compound: CC(NC(=O)c1cc(-c2ccc(OC(F)(F)F)cc2)cc(NC(=O)C2CC2)n1)c1ccc([N+](=O)[O-])cc1 (stereo not drawn) [Example I-228]
efficacy (caterpillars killed) (Spodoptera frugiperda; application rate 100 g/ha): 83%
efficacy (caterpillars killed) (Spodoptera frugiperda; application rate 500 g/ha): 100%
LOGP_HCOOH [1, 4]: 4.28
efficacy (kill in %) (Ctenocephalides felis): 100%
efficacy (beetle larvae killed) (Phaedon cochleariae; application rate 500 g/ha): 100%
efficacy (kill in %) (Lucilia cuprina): 100%

Compound: O=C(NCC1CC1)c1cc(-c2ccc(OC(F)(F)F)cc2)cc(NC(=O)C2CC2)n1 [Example I-141]
efficacy (caterpillars killed) (Spodoptera frugiperda; application rate 100 g/ha): 83%
efficacy (caterpillars killed) (Spodoptera frugiperda; application rate 500 g/ha): 100%
LOGP_HCOOH [1, 4]: 3.84
efficacy (kill in %) (Ctenocephalides felis): 100%
efficacy (beetle larvae killed) (Phaedon cochleariae; application rate 100 g/ha): 100%
efficacy (beetle larvae killed) (Phaedon cochleariae; application rate 500 g/ha): 100%
efficacy (kill in %) (Lucilia cuprina): 100%

Compound: O=C(NC1CC1)c1cc(-c2ccc(OC(F)F)cc2)cc(NC(=O)C2CC2)n1 [Example I-030]
efficacy (caterpillars killed) (Spodoptera frugiperda; application rate 100 g/ha): 83%
efficacy (caterpillars killed) (Spodoptera frugiperda; application rate 500 g/ha): 100%
LOGP_HCOOH [1, 2]: 2.94
LOGP_NEUTRAL [1, 3]: 2.83
efficacy (kill in %) (Ctenocephalides felis): 100%
efficacy (beetle larvae killed) (Phaedon cochleariae; application rate 100 g/ha): 100%
efficacy (beetle larvae killed) (Phaedon cochleariae; application rate 500 g/ha): 100%
efficacy (kill in %) (Lucilia cuprina): 90%

Compound: CCCCNC(=O)c1cc(-c2ccc(OC(F)(F)F)cc2)cc(NC(=O)C2CC2)n1 [Example I-113]
efficacy (caterpillars killed) (Spodoptera frugiperda; application rate 100 g/ha): 83%
efficacy (caterpillars killed) (Spodoptera frugiperda; application rate 500 g/ha): 100%
LOGP_HCOOH [1, 4]: 4.18
LOGP_NEUTRAL [1, 3]: 4.06
efficacy (kill in %) (Ctenocephalides felis): 100%
efficacy (beetle larvae killed) (Phaedon cochleariae; application rate 500 g/ha): 100%
efficacy (kill in %) (Lucilia cuprina): 100%

Compound: N#Cc1ccc(CNC(=O)c2cc(-c3ccc(C(F)(F)F)cc3)cc(NC(=O)C3CC3)n2)cc1 [Example I-005]
efficacy (caterpillars killed) (Spodoptera frugiperda; application rate 100 g/ha): 100%
efficacy (caterpillars killed) (Spodoptera frugiperda; application rate 500 g/ha): 100%
LOGP_HCOOH [1, 2]: 3.73
efficacy (kill in %) (Ctenocephalides felis): 100%
efficacy (beetle larvae killed) (Phaedon cochleariae; application rate 100 g/ha): 100%
efficacy (beetle larvae killed) (Phaedon cochleariae; application rate 500 g/ha): 100%
efficacy (kill in %) (Lucilia cuprina): 100%

Compound: N#Cc1cc(F)c(CNC(=O)c2cc(-c3ccc(C(F)(F)C(F)(F)F)c(F)c3)cc(NC(=O)C3CC3)n2)cc1F [Example I-249]
efficacy (caterpillars killed) (Spodoptera frugiperda; application rate 100 g/ha): 100%
efficacy (caterpillars killed) (Spodoptera frugiperda; application rate 500 g/ha): 100%
LOGP_HCOOH [1, 2]: 4.51
LOGP_NEUTRAL ([1]; log P (neutral), HPLC reversed-phase column (C 18)): 4.51
efficacy (kill in %) (Ctenocephalides felis): 100%
efficacy (beetle larvae killed) (Phaedon cochleariae; application rate 100 g/ha): 100%
efficacy (beetle larvae killed) (Phaedon cochleariae; application rate 500 g/ha): 100%
efficacy (kill in %) (Lucilia cuprina): 100%

Compound: CC(C#N)NC(=O)c1cc(-c2ccc(C(F)(F)C(F)(F)F)c(F)c2)cc(NC(=O)C2CC2)n1 (stereo not drawn) [Example I-245]
efficacy (caterpillars killed) (Spodoptera frugiperda; application rate 100 g/ha): 100%
efficacy (caterpillars killed) (Spodoptera frugiperda; application rate 500 g/ha): 100%
LOGP_HCOOH [1, 2]: 3.94
efficacy (kill in %) (Ctenocephalides felis): 100%
efficacy (beetle larvae killed) (Phaedon cochleariae; application rate 100 g/ha): 100%
efficacy (beetle larvae killed) (Phaedon cochleariae; application rate 500 g/ha): 100%
efficacy (kill in %) (Lucilia cuprina): 80%

Compound: CN(Cc1ccc(C#N)cc1)C(=O)c1cc(-c2ccc(C(F)(F)F)cc2)cc(NC(=O)C2CC2)n1 [Example I-043]
efficacy (caterpillars killed) (Spodoptera frugiperda; application rate 500 g/ha): 100%
LOGP_HCOOH [1, 2]: 3.67
LOGP_NEUTRAL [1, 3]: 3.58
efficacy (kill in %) (Ctenocephalides felis): 100%
efficacy (beetle larvae killed) (Phaedon cochleariae; application rate 500 g/ha): 100%
efficacy (kill in %) (Lucilia cuprina): 100%

Compound: O=C(NC1COC1)c1cc(-c2ccc(OC(F)(F)F)cc2)cc(NC(=O)C2CC2)n1 [Example I-117]
efficacy (caterpillars killed) (Spodoptera frugiperda; application rate 100 g/ha): 100%
efficacy (caterpillars killed) (Spodoptera frugiperda; application rate 500 g/ha): 100%
LOGP_HCOOH [1, 4]: 3.07
LOGP_NEUTRAL [1, 3]: 2.95
efficacy (kill in %) (Ctenocephalides felis): 100%
efficacy (beetle larvae killed) (Phaedon cochleariae; application rate 500 g/ha): 100%
efficacy (kill in %) (Lucilia cuprina): 95%

Compound: N#Cc1ccc(CNC(=O)c2cc(-c3ccc(S(F)(F)(F)(F)F)cc3)cc(NC(=O)C3CC3)n2)cc1 [Example I-173]
efficacy (caterpillars killed) (Spodoptera frugiperda; application rate 100 g/ha): 100%
efficacy (caterpillars killed) (Spodoptera frugiperda; application rate 500 g/ha): 100%
LOGP_HCOOH [1, 4]: 3.98
LOGP_NEUTRAL [1, 3]: 4.31
efficacy (kill in %) (Ctenocephalides felis): 100%
efficacy (beetle larvae killed) (Phaedon cochleariae; application rate 100 g/ha): 100%
efficacy (beetle larvae killed) (Phaedon cochleariae; application rate 500 g/ha): 100%
efficacy (kill in %) (Lucilia cuprina): 100%

Compound: N#Cc1ccc(CNC(=O)c2cc(-c3ccc(N(C(F)(F)F)C(F)(F)F)cc3)cc(NC(=O)C3CC3)n2)cc1 [Example I-225]
efficacy (caterpillars killed) (Spodoptera frugiperda; application rate 100 g/ha): 100%
efficacy (caterpillars killed) (Spodoptera frugiperda; application rate 500 g/ha): 100%
LOGP_HCOOH [1, 4]: 4.40
LOGP_NEUTRAL [1, 3]: 4.34
efficacy (kill in %) (Ctenocephalides felis): 100%
efficacy (beetle larvae killed) (Phaedon cochleariae; application rate 100 g/ha): 100%
efficacy (beetle larvae killed) (Phaedon cochleariae; application rate 500 g/ha): 100%
efficacy (kill in %) (Lucilia cuprina): 100%

Compound: O=C(NCCC(F)(F)F)c1cc(-c2ccc(OC(F)(F)F)cc2)cc(NC(=O)C2CC2)n1 [Example I-176]
efficacy (caterpillars killed) (Spodoptera frugiperda; application rate 100 g/ha): 100%
efficacy (caterpillars killed) (Spodoptera frugiperda; application rate 500 g/ha): 100%
LOGP_NEUTRAL [1, 3]: 3.83
efficacy (kill in %) (Ctenocephalides felis): 100%
efficacy (beetle larvae killed) (Phaedon cochleariae; application rate 100 g/ha): 100%
efficacy (beetle larvae killed) (Phaedon cochleariae; application rate 500 g/ha): 100%
efficacy (kill in %) (Lucilia cuprina): 100%

Now from value to compound, other results behind:

LOGP_HCOOH [1, 2]: 3.91
LOGP_NEUTRAL [1, 3]: 3.85
Compound: CC(C)C(=O)Nc1cc(-c2ccc(C(F)(F)F)cc2)cc(C(=O)NCc2ccc(C#N)cc2)n1 [Example I-015]
efficacy (caterpillars killed) (Spodoptera frugiperda; application rate 100 g/ha): 100%
efficacy (caterpillars killed) (Spodoptera frugiperda; application rate 500 g/ha): 100%
efficacy (kill in %) (Ctenocephalides felis): 98%
efficacy (beetle larvae killed) (Phaedon cochleariae; application rate 100 g/ha): 83%
efficacy (beetle larvae killed) (Phaedon cochleariae; application rate 500 g/ha): 100%
efficacy (kill in %) (Lucilia cuprina): 100%

LOGP_HCOOH [1, 4]: 3.86
LOGP_NEUTRAL [1, 3]: 3.82
Compound: N#Cc1ccc(CNC(=O)c2cc(-c3ccc(C(F)(F)F)c(F)c3)cc(NC(=O)C3CC3)n2)cc1 [Example I-224]
efficacy (caterpillars killed) (Spodoptera frugiperda; application rate 100 g/ha): 100%
efficacy (caterpillars killed) (Spodoptera frugiperda; application rate 500 g/ha): 100%
efficacy (kill in %) (Ctenocephalides felis): 100%
efficacy (beetle larvae killed) (Phaedon cochleariae; application rate 100 g/ha): 100%
efficacy (beetle larvae killed) (Phaedon cochleariae; application rate 500 g/ha): 100%
efficacy (kill in %) (Lucilia cuprina): 100%

LOGP_HCOOH [1, 2]: 3.77
LOGP_NEUTRAL [1, 3]: 3.64
Compound: CC(C)(C#N)NC(=O)c1cc(-c2ccc(OC(F)(F)F)cc2)cc(NC(=O)C2CC2)n1 [Example I-108]
efficacy (caterpillars killed) (Spodoptera frugiperda; application rate 100 g/ha): 100%
efficacy (caterpillars killed) (Spodoptera frugiperda; application rate 500 g/ha): 83%
efficacy (kill in %) (Ctenocephalides felis): 100%
efficacy (beetle larvae killed) (Phaedon cochleariae; application rate 500 g/ha): 83%
efficacy (kill in %) (Lucilia cuprina): 90%

LOGP_HCOOH [1, 4]: 4.09
Compound: N#Cc1ccc(CNC(=O)c2cc(-c3ccc(OC(F)(F)Cl)cc3)cc(NC(=O)C3CC3)n2)cc1 [Example I-190]
efficacy (caterpillars killed) (Spodoptera frugiperda; application rate 100 g/ha): 100%
efficacy (caterpillars killed) (Spodoptera frugiperda; application rate 500 g/ha): 100%
efficacy (kill in %) (Ctenocephalides felis): 100%
efficacy (beetle larvae killed) (Phaedon cochleariae; application rate 100 g/ha): 100%
efficacy (beetle larvae killed) (Phaedon cochleariae; application rate 500 g/ha): 100%
efficacy (kill in %) (Lucilia cuprina): 100%

LOGP_HCOOH [1, 4]: 4.02
LOGP_NEUTRAL [1, 3]: 3.89
Compound: CC(C)C(=O)N(C)c1cc(-c2ccc(OC(F)(F)F)cc2)cc(C(=O)NCc2ccc(C#N)cc2)n1 [Example I-217]
efficacy (caterpillars killed) (Spodoptera frugiperda; application rate 100 g/ha): 100%
efficacy (caterpillars killed) (Spodoptera frugiperda; application rate 500 g/ha): 100%
efficacy (kill in %) (Ctenocephalides felis): 80%
efficacy (beetle larvae killed) (Phaedon cochleariae; application rate 500 g/ha): 83%
efficacy (kill in %) (Lucilia cuprina): 100%

LOGP_HCOOH [1, 2]: 4.31
LOGP_NEUTRAL [1, 3]: 4.15
Compound: CC(C)C(=O)Nc1cc(-c2ccc(OC(F)(F)F)cc2)cc(C(=O)NCc2c(F)cc(C#N)cc2F)n1 [Example I-070]
efficacy (caterpillars killed) (Spodoptera frugiperda; application rate 500 g/ha): 83%
efficacy (kill in %) (Ctenocephalides felis): 98%
efficacy (beetle larvae killed) (Phaedon cochleariae; application rate 500 g/ha): 100%
efficacy (kill in %) (Lucilia cuprina): 100%
